Experiments:
[1] = test system: normal NK cells expanded with K562-aAPC; assay: percent inhibition of viability; higher = more inhibition; details: 72 h, IL-2 2.5 ng/mL
Protocol: (§1)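 Drug sensitivity and resistance testing on K562-aAPC-expanded normal NK cells: 5 concentrations (10-fold steps over a 10,000-fold range), 72 h at 37 °C, viability by CellTiter-Glo normalised to DMSO and benzethonium chloride controls; DSS from the fitted curve.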

[2] = test system: NK-YS (IL-2 2.5 ng/mL); assay: as above; details: 72 h
[3] = test system: YT (IL-2 2.5 ng/mL); assay: as above; details: 72 h
[4] = test system: normal primary NK cells, pool 3 (3 donors) (IL-2 2.5 ng/mL); assay: as above; details: 72 h
[5] = test system: NK-92 (IL-2 2.5 ng/mL); assay: as above; details: 72 h
[6] = test system: IMC-1 (IL-2 20 ng/mL); assay: as above; details: 72 h
[7] = test system: normal primary NK cells, pool 1 (3 donors), resting (IL-2 0 ng/mL); assay: as above; details: 72 h
[8] = test system: normal primary NK cells, pool 2 (3 donors) (IL-2 2.5 ng/mL); assay: as above; details: 72 h
[9] = test system: SNK-6 (IL-2 2.5 ng/mL); assay: as above; details: 72 h
[10] = test system: normal primary NK cells, pool 1 (3 donors) (IL-2 2.5 ng/mL); assay: as above; details: 72 h
[11] = test system: KAI3 (IL-2 2.5 ng/mL); assay: as above; details: 72 h
[12] = test system: DERL-7 (IL-2 2.5 ng/mL); assay: as above; details: 72 h
[13] = test system: NKL (IL-2 2.5 ng/mL); assay: as above; details: 72 h
[14] = test system: KHYG-1 (IL-2 2.5 ng/mL); assay: as above; details: 72 h
[15] = test system: normal NK cells expanded with K562-aAPC; assay: drug sensitivity score (DSS) (DSS units); higher = more sensitive; extreme values may be limits of the assay; details: 72 h; IL-2 2.5 ng/mL
Protocol: as §1

[16] = test system: NK-YS (IL-2 2.5 ng/mL); assay: as above; details: 72 h
[17] = test system: YT (IL-2 2.5 ng/mL); assay: as above; details: 72 h
[18] = test system: normal primary NK cells, pool 3 (3 donors) (IL-2 2.5 ng/mL); assay: as above; details: 72 h
[19] = test system: NK-92 (IL-2 2.5 ng/mL); assay: as above; details: 72 h
[20] = test system: IMC-1 (IL-2 20 ng/mL); assay: as above; details: 72 h
[21] = test system: normal primary NK cells, pool 1 (3 donors), resting (IL-2 0 ng/mL); assay: as above; details: 72 h
[22] = test system: normal primary NK cells, pool 2 (3 donors) (IL-2 2.5 ng/mL); assay: as above; details: 72 h
[23] = test system: SNK-6 (IL-2 2.5 ng/mL); assay: as above; details: 72 h
[24] = test system: normal primary NK cells, pool 1 (3 donors) (IL-2 2.5 ng/mL); assay: as above; details: 72 h
[25] = test system: KAI3 (IL-2 2.5 ng/mL); assay: as above; details: 72 h
[26] = test system: DERL-7 (IL-2 2.5 ng/mL); assay: as above; details: 72 h
[27] = test system: NKL (IL-2 2.5 ng/mL); assay: as above; details: 72 h
[28] = test system: KHYG-1 (IL-2 2.5 ng/mL); assay: as above; details: 72 h

Clc1ccc(Nc2nnc(Cc3ccncc3)c3ccccc23)cc1 [Vatalanib] (max concentration tested 10000 nM)
percent inhibition of viability [%]
Details | 1 nM | 10 nM | 100 nM | 1000 nM | 10000 nM
[1] | -5.26 | 1.3 | -1.96 | 9.03 | 9.76
[2] | 0.51 | -0.15 | 5.11 | 1.16 | 15.7
[3] | -1.15 | 0.78 | 6.42 | -0.36 | 12.6
[4] | -15.5 | -8.9 | -5.65 | -2.32 | -4.9
[5] | 5.05 | 7.47 | 10.4 | 6.67 | 30.2
[6] | -2.63 | 0.44 | 3.66 | 5.09 | 30.7
[7] | 8.82 | -6.33 | -5.39 | -29.3 | 12.2
[8] | -10.1 | -2.12 | -4.7 | -5.37 | 2.5
[9] | 9.43 | 19.1 | 24.5 | 8.51 | 0.02
[10] | -1.16 | -14.2 | -9.3 | -17.4 | -10.3
[11] | 0.27 | -2.4 | -1.03 | -4.6 | 20.6
[12] | 1.72 | 5.91 | 0.68 | 4.05 | 0.46
[13] | -15.8 | -12.6 | -1.27 | 4.13 | 31.1
[14] | 0.78 | 0.74 | 8.34 | 3.67 | 19.5

Details | drug sensitivity score
[15] | 0
[16] | 0.39
[17] | 0.07
[18] | 0
[19] | 2.23
[20] | 2.18
[21] | 0.01
[22] | 0
[23] | 0
[24] | 0
[25] | 0.45
[26] | 0
[27] | 2.05
[28] | 0.55

C=CCN(/C=C1/C(=O)O[C@H](COC)[C@@]2(C)C1=C(O)C(=O)C1=C2[C@H](OC(C)=O)C[C@]2(C)C(=O)CC[C@@H]12)CC=C [Sonolisib] (max concentration tested 10000 nM)
percent inhibition of viability [%]
Details | 1 nM | 10 nM | 100 nM | 1000 nM | 10000 nM
[1] | -4.81 | -6.86 | -3.23 | 3.22 | 31.4
[2] | -0.83 | -2.4 | -0.43 | 13.8 | 28.2
[3] | -3.75 | -4.21 | -0.91 | 9.17 | 19.1
[4] | -11.6 | 9.95 | 14.7 | 4.05 | 31.2
[5] | -0.51 | -6.14 | 4.9 | 21.8 | 43.3
[6] | -9.13 | -2.03 | -1.28 | -0.72 | 6.3
[7] | -7.82 | 8.6 | 11.1 | 16.4 | 59.7
[8] | -5.83 | 0.64 | 8.59 | 17.3 | 40.2
[9] | -13.7 | -20.8 | -21.5 | -12.3 | 28.8
[10] | -5.92 | 11.5 | 7.17 | 23.3 | 57
[11] | -2.28 | -8.79 | -2.59 | 6.95 | 37.8
[12] | 4.44 | 0.05 | 7.66 | 7.97 | 25.7
[13] | -7.87 | -4.63 | -1.36 | 21.9 | 28.6
[14] | -3.26 | -9.75 | -5.87 | -0.67 | 19.3

Details | drug sensitivity score
[15] | 1.91
[16] | 2.85
[17] | 1.45
[18] | 2.06
[19] | 4.58
[20] | 0
[21] | 5.24
[22] | 3.83
[23] | 0.79
[24] | 5.59
[25] | 2.98
[26] | 1.49
[27] | 3.66
[28] | 0.5

CC(C)n1cnc2c(NCCc3ccc(O)cc3)nc(-c3csc4ccccc34)nc21 [StemRegenin 1] (max concentration tested 10000 nM)
percent inhibition of viability [%]
Details | 1 nM | 10 nM | 100 nM | 1000 nM | 10000 nM
[1] | -5.56 | -5.75 | -5.39 | -7.57 | 0.59
[2] | -3.67 | -6.84 | -5.59 | 1.14 | 24.9
[3] | -5.32 | -2.81 | 0.29 | 5.57 | 71.9
[4] | -3.75 | -2.11 | -2.9 | -0.23 | 36
[5] | -11 | -16.6 | 1.48 | 39.2 | 97.7
[6] | -6.67 | -2.1 | -7.77 | -8.29 | 0.67
[7] | -11.7 | -11.1 | 15.2 | 12.3 | 74.7
[8] | -1.53 | -2.41 | -0.22 | -2.53 | 54.6
[9] | -6.98 | 28.7 | -5.97 | -12.5 | 71.9
[10] | -8.25 | -4.37 | -0.27 | 7.52 | 45
[11] | -8.14 | 3.68 | 6.57 | -0.19 | 76.8
[12] | 2.23 | 15.4 | 50.9 | 71.1 | 96.4
[13] | -9.52 | 0.88 | 5.6 | 18.4 | 80.4
[14] | -5.41 | -0.83 | 0.98 | 8.59 | 98.9

Details | drug sensitivity score
[15] | 0
[16] | 1.09
[17] | 4.83
[18] | 1.7
[19] | 10.6
[20] | 0
[21] | 6.2
[22] | 2.7
[23] | 3.24
[24] | 3.58
[25] | 4.25
[26] | 21.1
[27] | 7.36
[28] | 6.85

Reference: the supplement of paper PMC5908809
